Tests used:
[1] = background, reference (9); cited from earlier work
mammary carcinomas = experiment: Hormone-induced (MPA/DMBA) orthotopic mammary tumor model; format: in vivo, BALB/c mice; settings: combination of MTX-based chemotherapy and HC, versus MTX and HC alone; data not shown
From the text: Breast cancers were induced in young (7-weeks-old) female BALB/c mice by implantation of medroxyprogesterone acetate (MPA)-releasing pellets followed by gavage with the DNA damaging agent 7,12-Dimethylbenz[a]anthracene (DMBA) for the following 6 weeks. Note that the interval between the last DMBA injection and the manifestation of palpable breast cancer lesions is rather variable. When palpable tumors appeared, mice were randomized into the different experimental groups and treated with intraperitoneal injections of hydroxycitrate (100 mg/kg) at d-1 and d0 and/or intraperitoneal injections of 5.17 mg/kg of Mitoxantrone. Neutralizing anti-CD11b antibodies (clone M1/70, ref BE0007 from BioXCell™) or their isotype control (clone LTF-2, ref BE0090 from BioXCell™) were then injected at d-1, d0 and d7. Tumor growth was followed by calculating tumor surface (mm^2) with the formula length×width.

MCA205 fibrosarcoma = experiment: Subcutaneous MCA205 fibrosarcoma: tumor growth, cure and survival under chemo-immunotherapy; format: in vivo, C57B1/6 mice
whole MCA205 tumors = experiment: RNA-seq analyses of whole tumors; format: in vivo, C57B1/6 mice; settings: day 3 post-chemotherapy (MTX); data not shown
CTLA-4 = CTLA-4 expression in tumors; format: in vivo, C57B1/6 mice; settings: MTX alone or together with fasting or CRMs; data not shown
PD-1 = PD-1 expression in tumors; format: in vivo, C57B1/6 mice; settings: MTX alone or together with fasting or CRMs; data not shown
Procedure: 3 or 11 days post-chemotherapy (d3 or d11), mice were euthanized and the tumors were withdrawn and placed in gentleMACS C tubes (ref 130-096-334 from Miltenyi Biotec™) previously filled with 1 ml of DMEM or RPMI medium, and immediately put on ice. After a mechanical (with scissors) and chemical digestion (thanks to the tumor dissociation kit and the gentleMACS Octo Dissociator, ref 130-096-730 and 130-096-427, respectively, from Miltenyi Biotec™), tumors were filtered (using MACS smartstrainers […], ref 130-110-916 from Miltenyi Biotec™), washed twice with PBS and distributed in a 96-wells round bottom plate.
Then, cells were stained with a live dead dye (ref L34959 from ThermoFisher Scientific™) and an FCblock receptor targeting antibody. […] Finally, cells were resuspended in FACS buffer and analyzed on a flow cytometer BD LSR II.

| Compound | Efficacy of anticancer chemotherapy with immunogenic cell death (ICD) inducers [1] | Reduction of tumor growth and prolongation of mouse survival (mammary carcinomas) | Cure rate (MCA205 fibrosarcoma; CRM added to OXA+PD-1 blockade) | Cured mice (MCA205 fibrosarcoma; CRM added to OXA+PD-1 blockade) | Efficacy of OXA and anti-PD-1 combination when the CRM is added (MCA205 fibrosarcoma; figure legend FIG. 7) | Evidence of local immunostimulation (whole MCA205 tumors) | Expression of CTLA-4 (CTLA-4) | Expression of PD-1 (PD-1) |
| --- | --- | --- | --- | --- | --- | --- | --- | --- |
| O=C(O)CC(O)(C(=O)O)C(O)C(=O)O (centres unmarked) [HC, hydroxycitrate] | able to improve the efficacy | highly efficient in reducing tumor growth and prolonging mouse survival | 80% | 16 out of 20 | further enhanced | failed to yield convincing evidence |  |  |
| O=C1c2c(O)ccc(O)c2C(=O)c2c(NCCNCCO)ccc(NCCNCCO)c21 [MTX, mitoxantrone] |  |  |  |  |  |  | No changes | No changes |

Source: US20210030703A1, “USE OF CALORIC RESTRICTION MIMETICS FOR POTENTIATING CHEMO-IMMUNOTHERAPY FOR THE TREATMENT OF CANCERS” (INSERM (INSTITUT NATIONAL DE LA SANTÉ ET DE LA RECHERCHE …, priority 2018, published 2021)
